The values that follow come from patent EP2768830B1, “APOPTOSIS-INDUCING AGENTS FOR THE TREATMENT OF CANCER AND IMMUNE AND AUTOIMMUNE DISEASES” (AbbVie Inc., priority 2011, dated 2013).

Assay [1] has as its system mouse FL5.12 cells transfected with Bcl-XL. Description: FL5.12 cellular assay (cell viability, CellTiter-Glo).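 Note: each EC50 determination derived from duplicate measurements.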 The conditions noted are these: FL5.12 cells transfected with Bcl-XL, IL-3-depleted, 3% FBS assay media, 24 hours, CellTiter-Glo, read-out: FL5.12 Bcl-xL, - IL3, EC 50. The assay is classed as cell-based. For orientation: Cellular ATP, detected with luciferase, serves as a proxy for viable cell number.

In a further assay the target is GST-Bcl-xL (Homo sapiens, UniProt Q07817). The note with it: read-out: TR-FRET binding Bcl-xL Ki. On the technique in general: In TR-FRET formats the signal depends on donor and acceptor labels being close together.
Sequence of GST-Bcl-xL (Q07817 whole entry): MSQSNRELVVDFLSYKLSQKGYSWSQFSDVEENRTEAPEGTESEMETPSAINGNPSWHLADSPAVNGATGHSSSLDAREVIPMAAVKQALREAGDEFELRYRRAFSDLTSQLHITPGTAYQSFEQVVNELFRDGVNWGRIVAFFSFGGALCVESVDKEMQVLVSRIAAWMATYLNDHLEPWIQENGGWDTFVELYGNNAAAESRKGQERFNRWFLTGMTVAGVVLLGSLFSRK

The Ki is the equilibrium dissociation constant of an inhibitor or competing ligand from its target.

Where two headings read alike, the source gives them in different places.

In the case of `Cc1ccc(-c2ccc(N3CCc4cccc(C(=O)Nc5nc6ccccc6s5)c4C3)nc2C(=O)O)cc1Oc1ccccc1` [Example 108, 6-[8-(1,3-benzothiazol-2-ylcarbamoyl)-3,4-dihydroisoquinolin-2(1H)-yl]-3-(4-methyl-3-phenoxyphenyl)pyridine-2-carboxylic acid], the EC50 in assay [1] (Mus musculus) was more than 1000 nM. Also, at GST-Bcl-xL, the Ki was 9 nM.
The like results for `Cc1ccc(Oc2ccccc2)cc1-c1ccc(N2CCc3cccc(C(=O)Nc4nc5ccccc5s4)c3C2)nc1C(=O)O` [Example 109, 6-[8-(1,3-benzothiazol-2-ylcarbamoyl)-3,4-dihydroisoquinolin-2(1H)-yl]-3-(2-methyl-5-phenoxyphenyl)pyridine-2-carboxylic acid] were, in that order, more than 1000 nM and 49 nM.
The corresponding values for `Cc1cc(Oc2ccccc2)ccc1-c1ccc(N2CCc3cccc(C(=O)Nc4nc5ccccc5s4)c3C2)nc1C(=O)O` [Example 111, 6-[8-(1,3-benzothiazol-2-ylcarbamoyl)-3,4-dihydroisoquinolin-2(1H)-yl]-3-(2-methyl-4-phenoxyphenyl)pyridine-2-carboxylic acid] are more than 1000 nM and 21 nM.
The corresponding values for `Cc1c(OCC2CCCCC2)cccc1-c1ccc(N2CCc3cccc(C(=O)Nc4nc5ccccc5s4)c3C2)nc1C(=O)O` [Example 112, 6-[8-(1,3-benzothiazol-2-ylcarbamoyl)-3,4-dihydroisoquinolin-2(1H)-yl]-3-[3-(cyclohexylmethoxy)-2-methylphenyl]pyridine-2-carboxylic acid] are 523 nM and 0.7 nM.
As for `Cc1cc(OC2CCCCC2)ccc1-c1ccc(N2CCc3cccc(C(=O)Nc4nc5ccccc5s4)c3C2)nc1C(=O)O` [Example 113, 6-[8-(1,3-benzothiazol-2-ylcarbamoyl)-3,4-dihydroisoquinolin-2(1H)-yl]-3-[4-(cyclohexyloxy)-2-methylphenyl]pyridine-2-carboxylic acid], in assay [1] (Mus musculus), the EC50 is more than 1000 nM. Moreover, the Ki at GST-Bcl-xL stood at 19 nM.
The corresponding values for `Cc1c(OC2CCCCC2)cccc1-c1ccc(N2CCc3cccc(C(=O)Nc4nc5ccccc5s4)c3C2)nc1C(=O)O` [Example 114, 6-[8-(1,3-benzothiazol-2-ylcarbamoyl)-3,4-dihydroisoquinolin-2(1H)-yl]-3-[3-(cyclohexyloxy)-2-methylphenyl]pyridine-2-carboxylic acid] are 220 nM and 0.2 nM.
The corresponding values for `Cc1cc(OCC2CCCCC2)ccc1-c1ccc(N2CCc3cccc(C(=O)Nc4nc5ccccc5s4)c3C2)nc1C(=O)O` [Example 115, 6-[8-(1,3-benzothiazol-2-ylcarbamoyl)-3,4-dihydroisoquinolin-2(1H)-yl]-3-[4-(cyclohexylmethoxy)-2-methylphenyl]pyridine-2-carboxylic acid] are 916 nM and 5 nM.
The corresponding values for `N#Cc1c(OC2CCCCC2)cccc1-c1ccc(N2CCc3cccc(C(=O)Nc4nc5ccccc5s4)c3C2)nc1C(=O)O` [Example 116, 6-[8-(1,3-benzothiazol-2-ylcarbamoyl)-3,4-dihydroisoquinolin-2(1H)-yl]-3-[2-cyano-3-(cyclohexyloxy)phenyl]pyridine-2-carboxylic acid] are 667 nM and less than 0.1 nM.
Consider `O=C(Nc1nc2ccccc2s1)c1cccc2c1CN(c1ccc(-c3cccc(OC4CCCCC4)c3Cl)c(C(=O)O)n1)CC2` [Example 117, 6-[8-(1,3-benzothiazol-2-ylcarbamoyl)-3,4-dihydroisoquinolin-2(1H)-yl]-3-[2-chloro-3-(cyclohexyloxy)phenyl]pyridine-2-carboxylic acid], for which the EC50 in assay [1] (Mus musculus) was found to be 131 nM. In addition, the Ki on GST-Bcl-xL is less than 0.1 nM.
The corresponding values for `Cc1c(NC2CCCCC2)cccc1-c1ccc(N2CCc3cccc(C(=O)Nc4nc5ccccc5s4)c3C2)nc1C(=O)O` [Example 118, 6-[8-(1,3-benzothiazol-2-ylcarbamoyl)-3,4-dihydroisoquinolin-2(1H)-yl]-3-[3-(cyclohexylamino)-2-methylphenyl]pyridine-2-carboxylic acid] are 361 nM and 0.2 nM.
In the case of `O=C(Nc1nc2ccccc2s1)c1cccc2c1CN(c1ccc(-c3cccc(OC4CCCCC4)c3F)c(C(=O)O)n1)CC2` [Example 119, 6-[8-(1,3-benzothiazol-2-ylcarbamoyl)-3,4-dihydroisoquinolin-2(1H)-yl]-3-[3-(cyclohexyloxy)-2-fluorophenyl]pyridine-2-carboxylic acid], the EC50 in assay [1] stood at 762 nM. The Ki on GST-Bcl-xL was less than 0.1 nM.
Consider `O=C(Nc1nc2ccccc2s1)c1cccc2c1CN(c1ccc(-c3cccc(OC4CCCCC4)c3C(F)(F)F)c(C(=O)O)n1)CC2` [Example 120, 6-[8-(1,3-benzothiazol-2-ylcarbamoyl)-3,4-dihydroisoquinolin-2(1H)-yl]-3-[3-(cyclohexyloxy)-2-(trifluoromethyl)phenyl]pyridine-2-carboxylic acid], for which, in assay [1] (Mus musculus), the EC50 was determined as 859 nM. Also, the Ki at GST-Bcl-xL amounted to 0.4 nM.
The corresponding values for `Cc1c(OC2CCCC(C)(C)C2)cccc1-c1ccc(N2CCc3cccc(C(=O)Nc4nc5ccccc5s4)c3C2)nc1C(=O)O` (stereo not shown) [Example 121, 6-[8-(1,3-benzothiazol-2-ylcarbamoyl)-3,4-dihydroisoquinolin-2(1H)-yl]-3-{3-[(3,3-dimethylcyclohexyl)oxy]-2-methylphenyl}pyridine-2-carboxylic acid] are 82 nM and 0.1 nM.
The like results for `O=C(Nc1nc2ccccc2s1)c1cccc2c1CN(c1ccc(-c3cn(Cc4ccccc4)nn3)c(C(=O)O)n1)CC2` [Example 122, 6-[8-(1,3-benzothiazol-2-ylcarbamoyl)-3,4-dihydroisoquinolin-2(1H)-yl]-3-(1-benzyl-1H-1,2,3-triazol-4-yl)pyridine-2-carboxylic acid] were, in that order, more than 1000 nM and 117 nM.
The like results for `CCOC(=O)c1cc(-c2ccc(N3CCc4cccc(C(=O)Nc5nc6ccccc6s5)c4C3)nc2C(=O)O)c(C)n1Cc1ccccc1` [Example 123, 6-[8-(1,3-benzothiazol-2-ylcarbamoyl)-3,4-dihydroisoquinolin-2(1H)-yl]-3-[1-benzyl-5-(ethoxycarbonyl)-2-methyl-1H-pyrrol-3-yl]pyridine-2-carboxylic acid] were, in that order, 16 nM and less than 0.1 nM.
Regarding `Cc1c(-c2ccc(N3CCc4cccc(C(=O)Nc5nc6ccccc6s5)c4C3)nc2C(=O)O)cc(C(=O)O)n1Cc1ccccc1` [Example 124, 6-[8-(1,3-benzothiazol-2-ylcarbamoyl)-3,4-dihydroisoquinolin-2(1H)-yl]-3-(1-benzyl-5-carboxy-2-methyl-1H-pyrrol-3-yl)pyridine-2-carboxylic acid], the EC50 in assay [1] (Mus musculus) worked out at 57 nM. The Ki at GST-Bcl-xL is less than 0.1 nM.
The like results for `Cc1ccc(S(=O)(=O)n2ccc(-c3ccc(N4CCc5cccc(C(=O)Nc6nc7ccccc7s6)c5C4)nc3C(=O)O)c2)cc1` [Example 126, 6-[8-(1,3-benzothiazol-2-ylcarbamoyl)-3,4-dihydroisoquinolin-2(1H)-yl]-3-{1-[(4-methylphenyl)sulfonyl]-1H-pyrrol-3-yl}pyridine-2-carboxylic acid] were, in that order, more than 1000 nM and 47 nM.
The like results for `O=C(Nc1nc2ccccc2s1)c1cccc2c1CN(c1ccc(-c3ccn(C(=O)c4ccccc4)c3)c(C(=O)O)n1)CC2` [Example 127, 6-[8-(1,3-benzothiazol-2-ylcarbamoyl)-3,4-dihydroisoquinolin-2(1H)-yl]-3-(1-benzoyl-1H-pyrrol-3-yl)pyridine-2-carboxylic acid] were, in that order, more than 1000 nM and 2 nM.
The like results for `O=C(Nc1nc2ccccc2s1)c1cccc2c1CN(c1ccc(-c3ccn(S(=O)(=O)c4ccccc4)c3)c(C(=O)O)n1)CC2` [Example 128, 6-[8-(1,3-benzothiazol-2-ylcarbamoyl)-3,4-dihydroisoquinolin-2(1H)-yl]-3-[1-(phenylsulfonyl)-1H-pyrrol-3-yl]pyridine-2-carboxylic acid] were, in that order, more than 1000 nM and 7 nM.
On to `Cc1c(-c2ccc(N3CCc4cccc(C(=O)Nc5nc6ccccc6s5)c4C3)nc2C(=O)O)cc(C#N)n1Cc1ccccc1` [Example 129, 6-[8-(1,3-benzothiazol-2-ylcarbamoyl)-3,4-dihydroisoquinolin-2(1H)-yl]-3-(1-benzyl-5-cyano-2-methyl-1H-pyrrol-3-yl)pyridine-2-carboxylic acid], for which the EC50 in assay [1] (Mus musculus) was 18 nM. For the same compound, the Ki at GST-Bcl-xL is less than 0.1 nM.
Turning to `Cc1c(-c2ccc(N3CCc4cccc(C(=O)Nc5nc6ccccc6s5)c4C3)nc2C(=O)O)cc(C#N)n1CC1CCCCC1` [Example 130, 6-[8-(1,3-benzothiazol-2-ylcarbamoyl)-3,4-dihydroisoquinolin-2(1H)-yl]-3-[5-cyano-1-(cyclohexylmethyl)-2-methyl-1H-pyrrol-3-yl]pyridine-2-carboxylic acid], the EC50 in assay [1] (Mus musculus) stood at 30 nM. Besides, the Ki at GST-Bcl-xL was less than 0.1 nM.
The corresponding values for `COCCC1(Cn2ncc(-c3ccc(N4CCc5cccc(C(=O)Nc6nc7ccccc7s6)c5C4)nc3C(=O)O)c2C)CCCCCC1` [Example 134, 6-[8-(1,3-benzothiazol-2-ylcarbamoyl)-3,4-dihydroisoquinolin-2(1H)-yl]-3-(1-{[1-(2-methoxyethyl)cycloheptyl]methyl}-5-methyl-1H-pyrazol-4-yl)pyridine-2-carboxylic acid] are 0.9 nM and less than 0.1 nM.
Consider `O=C(Nc1nc2ccccc2s1)c1cccc2c1CN(c1ccc(-c3cnn(CC4CCNCC4)c3)c(C(=O)O)n1)CC2` [Example 135, 6-[8-(1,3-benzothiazol-2-ylcarbamoyl)-3,4-dihydroisoquinolin-2(1H)-yl]-3-[1-(piperidin-4-ylmethyl)-1H-pyrazol-4-yl]pyridine-2-carboxylic acid], for which the EC50 in assay [1] (Mus musculus) is more than 1000 nM. Further, on GST-Bcl-xL, the Ki was 78 nM.
